Each structure is given as a SMILES string. Calls of active or inactive are those of the source. The calls are words filed in the database; no cut-off is given here.

Series [1] concerns HepG2. Briefly: Upregulation of FAS gene expression in human HepG2 cells at 1 uM by qPCR analysis. Type of series: ADME, cell-based. To be noted: hepg2, 1 µM. For orientation: In qPCR the cycle at which signal appears reflects the starting amount.
Series [2] relates to HepG2. As to the kind of experiment: Upregulation of SCD1 gene expression in human HepG2 cells at 1 uM by qPCR analysis. Type of series: ADME, cell-based. To be noted: hepg2, 1 µM.
Series [3] relates to HepG2. Briefly: Induction of lipid accumulation in human HepG2 cells assessed as increase in cellular triglyceride level at 1 uM by Oil Red O staining relative to control. Type of series: cell-based. To be noted: hepg2, 1 µM.
Series [4] concerns HepG2. Briefly: Upregulation of SREBP-1 gene expression in human HepG2 cells at 1 uM by immunoblot analysis. To be noted: hepg2, 1 µM. In kind it is ADME, cell-based. For orientation: A western blot detects proteins with antibodies after separation by electrophoresis.
In series [5] the test system is HepG2. As to the kind of experiment: Upregulation of SREBP-1 gene expression in human HepG2 cells at 1 uM by qPCR analysis. In kind it is ADME, cell-based. To be noted: hepg2, 1 µM.
Series [6] relates to HepG2. As to the kind of experiment: Induction of lipid accumulation in human HepG2 cells assessed as cellular triglyceride concentration at 1 uM. To be noted: hepg2, 1 µM. Type of series: cell-based.
The target of series [7] is T1, Peroxisome proliferator-activated receptor alpha (Homo sapiens) (UniProt Q07869).
T1 sequence (whole entry): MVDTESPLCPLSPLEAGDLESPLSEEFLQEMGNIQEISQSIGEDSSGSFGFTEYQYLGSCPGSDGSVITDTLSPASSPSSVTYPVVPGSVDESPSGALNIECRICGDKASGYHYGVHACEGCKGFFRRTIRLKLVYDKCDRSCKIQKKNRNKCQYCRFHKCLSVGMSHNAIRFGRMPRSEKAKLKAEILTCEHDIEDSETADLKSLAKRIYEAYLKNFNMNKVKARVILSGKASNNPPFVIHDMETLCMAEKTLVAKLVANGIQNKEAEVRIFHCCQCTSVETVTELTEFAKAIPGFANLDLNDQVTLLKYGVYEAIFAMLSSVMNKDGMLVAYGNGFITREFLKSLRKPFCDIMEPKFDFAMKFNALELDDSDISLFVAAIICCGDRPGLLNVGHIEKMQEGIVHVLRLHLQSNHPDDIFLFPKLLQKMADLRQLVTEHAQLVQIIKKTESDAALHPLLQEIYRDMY
Briefly: Transactivation of PPAR-alpha transfected in HEK293 cells at 10 uM after 24 hrs by luciferase reporter gene assay. In kind it is cell-based. On the technique in general: Reporter assays use an easily measured gene product as a stand-in for the process of interest.

With `O=S(=O)(c1ccccc1)N(CC(F)(F)F)c1ccc(C(O)(C(F)(F)F)C(F)(F)F)cc1` [T091317], the Activity entry in series [1], in series [2], in series [3], in series [4], in series [5] and in series [6] was “Toxic” throughout.
For the compound `CC(C)(Oc1ccc(C(=O)c2ccc(Cl)cc2)cc1)C(=O)O`, the outcome in series [7] was Active.
